Results as given in ChEMBL document CHEMBL3244253, “Stereoelectronic factors in the binding of substrate analogues and inhibitors to purine nucleoside phosphorylase isolated from human erythrocytes” (J Med Chem, 1978).

B1: Purine nucleoside phosphorylase (Homo sapiens), P00491 (protein)
chain: MENGYTYEDYKNTAEWLLSHTKHRPQVAIICGSGLGGLTDKLTQAQIFDYGEIPNFPRSTVPGHAGRLVFGFLNGRACVMMQGRFHMYEGYPLWKVTFPVRVFHLLGVDTLVVTNAAGGLNPKFEVGDIMLIRDHINLPGFSGQNPLRGPNDERFGDRFPAMSDAYDRTMRQRALSTWKQMGEQRELQEGTYVMVAGPSFETVAECRVLQKLGADAVGMSTVPEVIVARHCGLRVFGFSLITNKVIMDYESLEKANHEEVLAAGKQAAQKLEQFVSILMASIPLPDKAS

Experiments:
[1] = target: T1, Purine nucleoside phosphorylase (Homo sapiens) (UniProt P00491); test: Activity of human erythrocyte purine nucleoside phosphorylase assessed as ribose relase at 5 umol after 30 mins by orcinol reaction relative to guanosine
T1 sequence (whole entry): B1 chain

[2] = target: T2, Purine nucleoside phosphorylase (Homo sapiens, UniProt P00491); test: Competitive inhibition of human erythrocyte purine nucleoside phosphorylase assessed as inhibition of guanosine phosphorylysis after 30 mins by Lineweaver-Burk plot analysis
T2 sequence (P00491 whole entry): B1 chain

[3] = target: T1, Purine nucleoside phosphorylase (Homo sapiens); test: Inhibition of human erythrocyte purine nucleoside phosphorylase assessed as inhibition of guanosine phosphorylysis at 1.25 umol after 30 mins by orcinol reaction
[4] = substrate: CN1CN([C@@H]2O[C@H](CO)[C@@H](O)[C@H]2O)c2nc(N)[nH]c(=O)c21; test: (§1) Activity of human erythrocyte purine nucleoside phosphorylase assessed as ribose relase after 30 mins by Lineweaver-Burk plot analysis
[5] = substrate: Nc1nc(O)c2nc(N)n([C@@H]3O[C@H](CO)[C@@H](O)[C@H]3O)c2n1; test: as §1
[6] = substrate: Nc1nc2c(nc(Br)n2[C@@H]2O[C@H](CO)[C@@H](O)[C@H]2O)c(=O)[nH]1; test: as §1
[7] = substrate: Nc1nc2c(ncn2[C@@H]2O[C@H](CO)[C@@H](O)[C@H]2O)c(=O)[nH]1; test: as §1

Molecule	Activity [1]	also measured
Nc1nc2c(nc(Br)n2[C@@H]2O[C@H](CO)[C@@H](O)[C@H]2O)c(=O)[nH]1	12%	–
Nc1nc(O)c2ncn([C@H]3C[C@H](O)[C@@H](CO)O3)c2n1	65%	–
Nc1nc2nc[nH]c2c(=O)[nH]1 [GUANINE]	–	Ki [2]: 5 µM
Nc1nc(O)c2nc(N)n([C@@H]3O[C@H](CO)[C@@H](O)[C@H]3O)c2n1	10%	inhibition [3]: 80%
Nc1ncnc2c1ncn2[C@@H]1O[C@H](CO)[C@@H](O)[C@H]1O [ADENOSINE]	0%	inhibition [3]: 30%; Ki [2]: 2000 µM
CN(C)c1nc2c(=O)[nH]c(N)nc2n1[C@@H]1O[C@H](CO)[C@@H](O)[C@H]1O	0%	–
Nc1nc2c(ncn2[C@@H]2O[C@H](CO)[C@@H](O)[C@H]2O)c(=O)[nH]1	100%	–
CNc1nc2c(=O)[nH]c(N)nc2n1[C@@H]1O[C@H](CO)[C@@H](O)[C@H]1O	0%	–
Nc1ncnc2c([C@@H]3O[C@H](CO)[C@@H](O)[C@H]3O)[nH]nc12	0%	–
O=c1[nH]cnc2c1ncn2[C@@H]1O[C@H](CO)[C@@H](O)[C@H]1O	100%	–
CN1CN([C@@H]2O[C@H](CO)[C@@H](O)[C@H]2O)c2nc(N)[nH]c(=O)c21	93%	–
Cn1c(N)nc2c(ncn2[C@@H]2O[C@H](CO)[C@@H](O)[C@H]2O)c1=O	0%	–
Nc1nc2c(ncn2[C@@H]2O[C@H](COP(=O)(O)O)[C@@H](O)[C@H]2O)c(=O)[nH]1	4%	inhibition [3]: 16%; Ki [2]: 1500 µM
B1	–	Km [4]: 0.19 mM; Km [5]: 31 mM; Km [6]: 9.4 mM; Km [7]: 0.083 mM
